Test system: Rh18 complex spheroid viability, percent test/control
Assay: Anticancer human tumor Rh18 cell line growth inhibition [Asc];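 further: spheroids exposed to compound for 7 days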;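 on viability, T/C: 100% = DMSO vehicle control wells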
Settings: for IC50: curve of first compound; for viability, T/C: stronger effect = lower value
Method: Multicellular complex tumor spheroid response to apoptosis pathway targeting inhibitors Alrizomadlin, Pelcitoclax, and Dasminapant in combination with a variety of drugs and investigational agents in selected tumor cell lines
The MDM2 inhibitor alrizomadlin, the Bcl-2/Bcl-xL inhibitor pelcitoclax, and the IAPs inhibitor dasminapant were evaluated both individually and in combination with standard of care and investigational anticancer small molecules within a complex spheroid model of solid tumors. . Complex spheroids include a stromal component modeled by human endothelial cells (HUVEC) and fibroblasts modeled by human mesenchymal stem cells (MSCs). The concentration ranges selected for each drug and investigational agent were based upon clinically achievable concentrations if the clinical Cmax of the agent was known.
Compounds. The drugs and investigational agents: alrizomadlin (APG-115; NSC831270), pelcitoclax (APG-1252; NSC835773), dasminapant (APG-1387;NSC834197), TAK-243 (NSC785004), copanlisib (NSC809693), olaparib (NSC753686), talazoparib (NSC767125), cobimetinib (NSC 768068), eltanexor (KPT-8602, NSC 794443), abemaciclib (NSC 768073), sotorasib (NSC818433), adagrasib (NSC 831453), MRTX-1133 (NSC 836407), Iadademestat (ORY1001, NSC 806812), and RMC-4630 (NSC839698), were obtained from the NCI Developmental Therapeutics Program Chemical Repository. The FDA-approved anticancer drug set is available from the Developmental Therapeutics Program at https://dtp.cancer.gov/organization/dscb/obtaining/available plates.htm. […] The stock solutions were prepared in dimethyl sulfoxide (DMSO, Sigma-Aldrich, St. Louis, MO, cat. D2650) at 800-fold the tested concentration and stored at -70 degrees C prior to their use. All drugs and investigational agents were tested over a range starting from a high concentration at or near the clinical Cmax and decreasing in half-log increments. If the clinical Cmax for an agent had not been determined, the highest concentration tested was 10 microM.
The patient-derived cancer (PDC) cell lines include five colon adenocarcinomas: 186277-243-T-J2-PDC, 616215-338-R-J1-PDC, 439559-082-T-J2-PDC, 463943-066-T-J2-PDC, and 519858-162-T-J1-PDC; three pancreatic carcinomas: 323965-272-R-J2-PDC, 521955-158-R6-J3-PDC, and 521955-158-R2-J5-PDC; two uterine sarcomas: 327498-152-R-J2-PDC and 993429-296-R-J1-PDC; two rhabdomyosarcomas: 755483-174-R-J1-PDC and 772245-204-R-J1-PDC; two soft tissue sarcomas: 126254-015-R-J1-PDC and 494315-158-R-J1-PDC; two malignant fibrous histiocytomas: 317291-083-R-J1-PDC and 596521-263-R-J1-PDC; two breast carcinomas: 171881-019-R-J1-PDC and 885512-296-R-J2-PDC; and one ovarian carcinoma: 6556581-035-R-J-PDC were obtained from the NCI PDMR, (https://pdmr.cancer.gov). The established cell lines HSSY-2 synovial sarcoma (RRID:CVCL 8719), SYO-1 synovial sarcoma (RRID:CVCL_7146), MPNST malignant peripheral neural sheath tumor were obtained from the Sloan Kettering Institute. The following established cell lines were purchased from the American Type Culture Collection (ATCC, Manassas, VA), Sor the received from the NCI repository:, PANC-1 pancreatic carcinoma (CRL-1469, RRID:CVCL_0480), OVCAR-5 ovarian carcinoma (RRID:CVCL_1628), OVCAR-8 ovarian carcinoma (RRID:CVCL_1629), , MCF-7 breast carcinoma (CRL-12584, RRID:CVCL_0031), MDA-MB-231 breast carcinoma (CRL-12532, RRID:CVCL_0062), NCI-H1876 small cell lung carcinoma (CRL-5902, RRID:CVCL_1503), NCI-H510A small cell lung carcinoma (HTB-184, RRID:CVCL_1565), NCI-H1417 (CRL-5869, RRID:CVCL_1469), and NCI-H196 small cell lung carcinoma (CRL-5823, RRID:CVCL_1509). Dr. Peter Houghton (Greehey Children's Cancer Research Institute, University of Texas Health Science Center, San Antonio, TX) provided Rh-18 rhabdomyosarcoma (RRID:CVCL_1659). Pooled donor human umbilical vein endothelial cells (HUVEC, Lonza, cat. CC-2519) and human mesenchymal stem cells (hMSC, Lonza, cat. PT-2501) were purchased from Lonza (Walkersville, MD).
Cell Culture. […]

SMILES: C=C(F)C(=O)N1CCN(c2nc(OCC3CCCN3C)nc3c2CCN(c2cccc4cccc(Cl)c24)C3)CC1CC#N (stereo not given) + CCN1C(C(=O)NC23CCC(C(=O)O)(CC2)CC3)C(c2cccc(Cl)c2F)C2(C(=O)Nc3cc(Cl)ccc32)C12CCCCC2
- IC50 (second compound 0.03 µM): < 31.6 nM
- IC50 (second compound 0.0949 µM): < 31.6 nM
- IC50 (second compound 0.3 µM): < 31.6 nM
- IC50 (second compound 0.949 µM): < 31.6 nM
- IC50 (second compound 3 µM): < 31.6 nM
- viability, T/C (second compound 0.03 µM, first compound 0.0316 µM): 25.2%
- viability, T/C (second compound 0.03 µM, first compound 0.1 µM): 28.7%
- viability, T/C (second compound 0.03 µM, first compound 0.316 µM): 35.2%
- viability, T/C (second compound 0.03 µM, first compound 1 µM): 32.9%
- viability, T/C (second compound 0.03 µM, first compound 3.16 µM): 31.6%
- viability, T/C (second compound 0.03 µM, first compound 10 µM): 0.2%
- viability, T/C (second compound 0.0949 µM, first compound 0.0316 µM): 19.6%
- viability, T/C (second compound 0.0949 µM, first compound 0.1 µM): 20.5%
- viability, T/C (second compound 0.0949 µM, first compound 0.316 µM): 17.7%
- viability, T/C (second compound 0.0949 µM, first compound 1 µM): 18.5%
- viability, T/C (second compound 0.0949 µM, first compound 3.16 µM): 7.46%
- viability, T/C (second compound 0.0949 µM, first compound 10 µM): 0.15%
- viability, T/C (second compound 0.3 µM, first compound 0.0316 µM): 10.7%
- viability, T/C (second compound 0.3 µM, first compound 0.1 µM): 10.4%
- viability, T/C (second compound 0.3 µM, first compound 0.316 µM): 9.23%
- viability, T/C (second compound 0.3 µM, first compound 1 µM): 7.64%
- viability, T/C (second compound 0.3 µM, first compound 3.16 µM): 3.23%
- viability, T/C (second compound 0.3 µM, first compound 10 µM): 0.14%
- viability, T/C (second compound 0.949 µM, first compound 0.0316 µM): 8.48%
- viability, T/C (second compound 0.949 µM, first compound 0.1 µM): 8.88%
- viability, T/C (second compound 0.949 µM, first compound 0.316 µM): 8.35%
- viability, T/C (second compound 0.949 µM, first compound 1 µM): 6.27%
- viability, T/C (second compound 0.949 µM, first compound 3.16 µM): 2.4%
- viability, T/C (second compound 0.949 µM, first compound 10 µM): 0.14%
- viability, T/C (second compound 3 µM, first compound 0.0316 µM): 7.28%
- viability, T/C (second compound 3 µM, first compound 0.1 µM): 7.78%
- viability, T/C (second compound 3 µM, first compound 0.316 µM): 8.39%
- viability, T/C (second compound 3 µM, first compound 1 µM): 5.04%
- viability, T/C (second compound 3 µM, first compound 3.16 µM): 2.37%
- viability, T/C (second compound 3 µM, first compound 10 µM): 0.17%

SMILES: Cc1nc(N2CCC3(CC2)COC(C)C3N)c(CO)nc1Sc1ccnc(N)c1Cl (stereo not given) + CCN1C(C(=O)NC23CCC(C(=O)O)(CC2)CC3)C(c2cccc(Cl)c2F)C2(C(=O)Nc3cc(Cl)ccc32)C12CCCCC2
- IC50 (second compound 0.03 µM): < 9.49 nM
- IC50 (second compound 0.0949 µM): < 9.49 nM
- IC50 (second compound 0.3 µM): < 9.49 nM
- IC50 (second compound 0.949 µM): < 9.49 nM
- IC50 (second compound 3 µM): < 9.49 nM
- viability, T/C (second compound 0.03 µM, first compound 0.00949 µM): 27%
- viability, T/C (second compound 0.03 µM, first compound 0.03 µM): 25.9%
- viability, T/C (second compound 0.03 µM, first compound 0.0949 µM): 21.3%
- viability, T/C (second compound 0.03 µM, first compound 0.3 µM): 17.6%
- viability, T/C (second compound 0.03 µM, first compound 0.949 µM): 12.5%
- viability, T/C (second compound 0.03 µM, first compound 3 µM): 10.6%
- viability, T/C (second compound 0.0949 µM, first compound 0.00949 µM): 15.7%
- viability, T/C (second compound 0.0949 µM, first compound 0.03 µM): 14.1%
- viability, T/C (second compound 0.0949 µM, first compound 0.0949 µM): 12.6%
- viability, T/C (second compound 0.0949 µM, first compound 0.3 µM): 10.3%
- viability, T/C (second compound 0.0949 µM, first compound 0.949 µM): 10%
- viability, T/C (second compound 0.0949 µM, first compound 3 µM): 5.48%
- viability, T/C (second compound 0.3 µM, first compound 0.00949 µM): 10.6%
- viability, T/C (second compound 0.3 µM, first compound 0.03 µM): 11.8%
- viability, T/C (second compound 0.3 µM, first compound 0.0949 µM): 7.08%
- viability, T/C (second compound 0.3 µM, first compound 0.3 µM): 6.62%
- viability, T/C (second compound 0.3 µM, first compound 0.949 µM): 4.84%
- viability, T/C (second compound 0.3 µM, first compound 3 µM): 3.71%
- viability, T/C (second compound 0.949 µM, first compound 0.00949 µM): 7.44%
- viability, T/C (second compound 0.949 µM, first compound 0.03 µM): 6.92%
- viability, T/C (second compound 0.949 µM, first compound 0.0949 µM): 5.92%
- viability, T/C (second compound 0.949 µM, first compound 0.3 µM): 4.76%
- viability, T/C (second compound 0.949 µM, first compound 0.949 µM): 3.46%
- viability, T/C (second compound 0.949 µM, first compound 3 µM): 1.83%
- viability, T/C (second compound 3 µM, first compound 0.00949 µM): 5.58%
- viability, T/C (second compound 3 µM, first compound 0.03 µM): 7.16%
- viability, T/C (second compound 3 µM, first compound 0.0949 µM): 4.62%
- viability, T/C (second compound 3 µM, first compound 0.3 µM): 3.55%
- viability, T/C (second compound 3 µM, first compound 0.949 µM): 3.01%
- viability, T/C (second compound 3 µM, first compound 3 µM): 1.74%

Reference: PubChem BioAssay AID1963431 (Molecular Pharmacology Branch, DTP, NCI, 2024)
